Measurements published in patent US8039501B2, “Synephrine derivatives useful as anti-inflammatory agents” (Universiteit Gent, priority 2005, dated 2011).

Tests used:
[1] = system: B16BL6 melanoma, PG19 melanoma and Lewis Lung Carcinoma; assay: In vivo melanoma model, subcutaneous tumors in mice; settings: eight days of treatment with 200 μg; PBS-treated 1.51+/−0.13 g
Method: In vivo melanoma model • Cells of B16BL6 melanoma, PG19 melanoma and Lewis Lung Carcinoma are kept in culture in DMEM supplemented with fetal calf serum, antibiotics and L-glutamine. Cells are harvested, washed three times in LPS-free PBS, and brought to a density of 6×10^6/ml (B16BL6) or 20×10^6/ml (PG19, EL4 and LLC). 100 μl of the cell suspension is injected subcutaneously into shaven, right hind limbs of the mice. When the tumors reach a size of 50-70 mm^2, daily treatment is started with dexamethasone (DEX), hydrocortisone (HYDRO), compound A (CpdA) or its analogues (intraperitoneally (i.p.) or in drinking water). DEX, HYDRO are diluted in PBS; CpdA is diluted in 20% ethanol. The smaller and larger diameters of the tumor are measured daily with an electronic caliper. Tumor size index (TSI) is defined in mm^2 as (a)×(b), (a) being the longest diameter of the tumor and (b) the diameter perpendicular to (a). […] Each mouse receives daily either PBS or a specific dose of DEX, ranging from 5 μg to 200 μg. […]. […] Toxicity and efficacy of CpdA and analogues will be evaluated.

[2] = Serum ELISA of osteoclast and osteoblast markers in DBA/1 mice; settings: 62.5 μg daily, 8 day treatment; FIG. 21A
Excerpt: DBA/1 mice—Male 8- to 12-wk-old DBA/1 mice were purchased from Janvier and housed following institutional guidelines. All animal procedures were approved by the institutional animal care and ethics committee. […] The human IL-6 and IL-8 cytoset were purchased from BioSource International, Inc. For the detection of TRAP5b in DBA/1 mice serum we used the Mouse TRAP Assay, purchased from Immunodiagnostic systems limited. The osteocalcin EIA kit was purchased from Biomedical Technologies, Inc. All assays were performed according to the manufacturer's instructions.

[3] = system: multiple myeloma cells U266; assay: MTT test, cell viability of U266 cells; format: cell-based, human; settings: Homo sapiens, U-266; 10^−4M; serum-free medium; FIG. 2A; read-out: Cell killing / reduction of viability of U266 cells
Method: (§1) The MTT test is a standard assay addressing cell toxicity of a compound. It is based on the principle that after 3-4 hours of cell incubation with MTT (3-(4,5-dimethylthiazole-2-yl)-2,5-diphenyl tetrazolium bromide) so-called purple formazan crystals develop in living and early apoptotic cells. Dead cells don't produce formazan crystals.
(§2) Different cell lines were tested. Unless indicated differently, A549 human lung epithelial cells (derived from lung carcinoma) and L929sA murine fibroblast cells were cultured in DMEM with 10% FCS, 100 U/ml penicillin and 100 μg/ml streptomycin. Unless indicated differently, the human multiple myeloma cell lines L363, U266 and MM1.S were cultured in RPMI 1640 with Glutamax-I, supplemented with 10% FCS, 100 U/ml penicillin and 100 μg/ml streptomycin. Cells were seeded at 5000 cells/well (for adherent A549 and L929sA cells) or at 10000 cells/well (for the multiple myeloma lines in suspension) in 96 well plates. Cells were incubated in the presence of the respective synephrine compounds or vehicle (EtOH; for control test) in a final volume of 0.2 ml for 24 or 48 hours at 37° C. Subsequently, 20 μl of MTT solution (5 mg/ml in phosphate-buffered saline) was added to each well. After 4 hours incubation at 37° C., 80 μl of the extraction buffer (10% SDS, 0.01 M HCl) was added. After overnight incubation at room temperature, the optical densities at 590 nm were measured. Results are illustrated in FIGS. 2 to 6 and are expressed as percentage of viable cells as compared to vehicle-treated controls.
(§3) The MTT test was further extended to include alternative synephrine derivatives and a range of multiple myeloma cell lines for which the results are illustrated by FIGS. 3A, 3B and 4A. Human multiple myeloma cell lines L363, U266 and MM1.S were cultured in RPMI 1640 with Glutamax-I, supplemented with 10% FCS, 100 U/ml penicillin and 100 μg/ml streptomycin. Cells were seeded at 10000 cells/well in 96 well plates. Cells were incubated in the presence of test compounds or vehicle in a final volume of 0.2 ml for 24 or 48 hours at 37° C. The test compounds included in the test were the synephrine derivatives CpdA, Naphth, Benz and Isobut, and DEX as a comparative example. Subsequently, 20 μl of MTT solution (5 mg/ml in phosphate-buffered saline) was added to each well. After 4 hours incubation at 37° C., 80 μl of the extraction buffer (10% SDS, 0.01 M HCl) was added. After 48 hours incubation at room temperature, the optical densities at 590 nm were measured. Results are expressed as percentage of viable cells as compared to vehicle-treated controls.

MCF7 breast cancer cells = settings: 10^−6 M
Method: In further experiments, nylon arrayfilter hybridization experiments were performed. cDNA array analyses were carried out according to the instructions of the manufacturer (SuperArray Simplicity GEArray™ KIT) on the cDNA arrays cancer pathway finder and stress and toxicity array. Total RNA, obtained by the protocol as described herein above, was used as a template for [α−^33P]-cDNA probe synthesis using the following steps:
A second array hybridization experiment was performed on Human Stress and Toxicity Pathway Finder GEarray Q series. The same protocol was followed as for the array hybridization experiment on the Human Cancer Pathway Finder described herein above.

MM1.S cell line = assay: MTT test, cell viability of MM1.S cells; format: cell-based, human; settings: Homo sapiens, MM1.S; 10^−4 M; 10% FCS; FIG. 4A; read-out: Inhibition of MM1.S cell viability
Method: as §1, §2, §3

[4] = MTT test, cell viability of L929sA fibroblasts; format: cell-based, murine; settings: mouse, L929sA fibroblast cells; 10^−4 M; 48 hours; FIG. 5B; read-out: Block of L929sA cell viability
Method: as §1, §2
In a further MTT test, the activity of the synephrine derivatives on the inhibition of cell viability of non-immune cells was measured. […] Tests were performed for 24 hours and for 48 hours. The results are illustrated by FIGS. 5A and 5B for L929 cells, and by FIGS. 6A and 6B for A549 cells. It was observed that CpdA at 10^−5 M blocked cell viability of L929sA and A549 for not more than 10%.

Compound: C[C@@H]1C[C@H]2[C@@H]3CCC4=CC(=O)C=C[C@]4(C)[C@@]3(F)[C@@H](O)C[C@]2(C)[C@@]1(O)C(=O)CO [DEX, dexamethasone, reference compound]
- Mean weight of tumors [1]: 0.59 ± 0.04 g
- TRAP5b in mouse serum [2]: increase of TRAP5b in mouse serum
- cytotoxicity at 100 µM [3]: 10%
- Levels of cyp1A1, FMO1, HMOX2, ATM, bcl2L1, casp1 (MCF7 breast cancer cells): increases levels
- cytotoxicity at 100 µM (MM1.S cell line): 30%
- cytotoxicity at 48 h [4]: 30%
